Source: US5036062A, “Novel esters” (Pharmacia AB, priority 1988, dated 1991)
Counter-ions that a name gives are not always drawn.

Legend:
[1] = Oral bioavailability of estramustine in dogs (AUC of estramustine after oral dosing); type: in vivo, Beagle dogs; details: oral water solution, dose equivalent to 140 mg estramustine phosphate, fasting; for AUC of estramustine, Mean ± S.D.: four Beagle dogs
Experimental: Different formulations were administered orally to groups of four Beagle dogs. The dose was equivalent to 140 mg of estramustine phosphate. The animals were fasting before dosing and given 50 ml 0.01 M hydrochloric acid after the dose. Blood samples were analysed for estramustine by means of gas chromatography. (Andersson, S-B, et al., Acta Pharm.Suec. 19, 1 (1982).
The following formulations were used: […]
1. Water solution of estramustine phosphate disodium salt
2. Water solution of compound No. 6:2
3. Water solution of compound No. 4:2

[2] = Interactions with calcium ions (observation of precipitate in acetate buffer pH=4.5 after adding equimolar calcium ions); type: physicochemical; details: for Observation: pH=4.5 buffer, observed for 3 h
Experimental: Solution A: 0.3 mole/l calcium diethanesulfonate. Calcium carbonate ([…], 15 mmole) is dissolved by adding a 1.0 mole/l ethanesulfonic acid solution until a stable pH=5.3 is obtained. The solution is diluted with water to 50 ml.
Solution B: 0.03 mole/l calcium diethanesulfonate. One part of solution A is diluted with 9 parts of water.
Solution C: 0.05 mole/l sodium acetate/acetic acid buffer with pH=4.5. Glacial acetic acid (3.0 g, 0.05 mole) is dissolved in 800 ml of water, titrated with 1 mole/l sodium hydroxide solution to pH=4.5 and diluted to 1 l.
The test compound is dissolved in 50 ml of solution C. A clear solution is obtained in a few minutes. After 5 minutes an equimolar amount of calcium ions are added by adding 1 ml of solution A or B. The mixture is observed for 3 h.

**Q.** Which results are given for `CNCC(=O)O[C@H]1CC[C@H]2[C@@H]3CCc4cc(OC(=O)N(CCCl)CCCl)ccc4[C@H]3CC[C@]12C` [Compound No. 4:2, 17-Estramustine N-methylaminoacetate, ethanesulfonate]?
**A.** AUC of estramustine ([1]; Dog No. 8729): 94.0 ng/mlxhours; AUC of estramustine ([1]; Dog No. 8731): 79.8 ng/mlxhours; AUC of estramustine ([1]; Dog No. 8735): 2.6 ng/mlxhours; AUC of estramustine ([1]; Dog No. 8742): 153.4 ng/mlxhours; AUC of estramustine, Mean ± S.D. [1]: 82.6 ± 62.0 ng/mlxhours

**Q.** Which AUC of estramustine ([1]; Dog No. 8727) does the source give for `C[C@]12CC[C@@H]3c4ccc(OC(=O)N(CCCl)CCCl)cc4CC[C@H]3[C@@H]1CC[C@@H]2OC(=O)CN` [Compound No. 6:2, 17-estramustine aminoacetate, methanesulfonate] here?
**A.** 100 ng/mlxhours

**Q.** And the AUC of estramustine ([1]; Dog No. 8729)?
**A.** 140 ng/mlxhours

**Q.** What about the AUC of estramustine ([1]; Dog No. 8731) of the same compound?
**A.** 45.8 ng/mlxhours

**Q.** And the AUC of estramustine ([1]; Dog No. 8733)?
**A.** 184.8 ng/mlxhours

**Q.** And the “AUC of estramustine, Mean ± S.D.” value [1]?
**A.** 118 ± 59 ng/mlxhours

**Q.** And the Observation ([2]; 178 mg, 0.3 mmole compound, solution A, 0.3 mmole calcium ions)?
**A.** Remains clear

**Q.** With `C[C@]12CC[C@@H]3c4ccc(OC(=O)N(CCCl)CCCl)cc4CC[C@H]3[C@@H]1CC[C@@H]2OP(=O)(O)O` [Estramustine phosphate disodium salt, 17-estramustine dihydrogen phosphate ester, reference compound] as the compound, how does the AUC of estramustine ([1]; Dog No. 8727) read?
**A.** 147 ng/mlxhours

**Q.** And the AUC of estramustine ([1]; Dog No. 8729)?
**A.** 16.4 ng/mlxhours

**Q.** And the AUC of estramustine ([1]; Dog No. 8731)?
**A.** 34.0 ng/mlxhours

**Q.** And the AUC of estramustine ([1]; Dog No. 8733)?
**A.** 19.5 ng/mlxhours

**Q.** And the “AUC of estramustine, Mean ± S.D.” value ([1]; listed as Etramustine phosphate disodium salt)?
**A.** 54.3 ± 62.4 ng/mlxhours

**Q.** And the Observation ([2]; 16 mg, 0.03 mmole compound, solution B, 0.03 mmole calcium ions)?
**A.** Becomes unclear

**Q.** And the “precipitate in the presence of calcium ions (summary)” value ([2]; novel compounds at concentrations 10 times higher than those of estramustine phosphate disodium salt and calcium ions giving immediate undissolved calcium salt)?
**A.** immediate formation of an undissolved estramustine phosphate calcium salt
